The target in the assay is T1, CB2 receptor (cannabinoid receptor 2) (Homo sapiens, UniProt P34972).
T1 construct: gene CNR2
As to the kind of experiment: radioligand binding assay, dose-response.

pKi: −log10 of the molar value.

T1 sequence (P34972 whole entry): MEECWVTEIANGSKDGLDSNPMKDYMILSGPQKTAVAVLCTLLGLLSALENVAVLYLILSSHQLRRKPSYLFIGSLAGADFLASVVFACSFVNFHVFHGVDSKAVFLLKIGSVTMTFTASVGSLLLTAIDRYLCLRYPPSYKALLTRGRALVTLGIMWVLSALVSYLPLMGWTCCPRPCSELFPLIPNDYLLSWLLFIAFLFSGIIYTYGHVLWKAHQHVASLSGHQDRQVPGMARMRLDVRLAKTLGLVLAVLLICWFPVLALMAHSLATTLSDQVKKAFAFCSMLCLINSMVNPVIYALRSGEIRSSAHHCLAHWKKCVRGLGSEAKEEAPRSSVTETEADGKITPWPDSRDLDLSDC

As to `CCCn1c(C)c(C(=O)NCC(=O)N2CCCCC2)c2cc(OC)ccc21` [ZINC77179032], the negative-log Ki (pKi) was 5.42.

Source of the values: PMC12136187, “A Full-Spectrum Generative Lead Discovery (FSGLD) Pipeline via DRUG-GAN: A Multiscale Method for Drug-like/Target-specific Compound Library Generation” (Research Square, 2025).
